Values of other authors in PubChem BioAssay AID1259409 (Chemical Carcinogenesis Research Information System (CCRIS), 2018).
Values joined by “and” are separate entries in the source; they are usually repeats but may differ in a detail not shown here. Identical values can stand only once.

System: rodent chemically induced tumor inhibition, incidence and multiplicity
Experiment: CCRIS tumor inhibitor studies

NCCCC(N)(C(=O)O)C(F)F (centres undefined)
tumour outcome (control, treated, inhibition, significance) (Carcinogen: DIETHYLNITROSAMINE, 55-18-5, Dose [Inhibitor]: 0, 600 MG/KG BW BY INTRAPERITONEAL INJECTION ON DAYS 13, 14 AND 15 OF AGE THEN 4 G/KG DIET FROM 21 TO 161 DAYS OF AGE (S, Route [Inhibitor]: INTRAPERITONEAL, ORAL, Species: MOUSE, Strain/Sex: C3H/MALE, Target Tissue: Type of Lesion: LIVER: ADENOMA, Dose [Carcinogen]: 4 MG/KG IN TRICAPRYLIN ONCE ON DAY 15 OF AGE, Promoter: NONE USED): 100%, 100%, 0%, not significant | tumour outcome (control, treated, inhibition, significance) (Carcinogen: DIETHYLNITROSAMINE, 55-18-5, Dose [Inhibitor]: 0, 1600 MG/KG DIET FOR DURATION OF STUDY BEGINNING 1 WK PRIOR TO CARCINOGEN TREATMENT (STUDY DURATION: 25 WK), Route [Inhibitor]: ORAL, Species: HAMSTER, Strain/Sex: SYRIAN/MALE, Target Tissue: Type of Lesion: LUNG: CARCINOMA, Dose [Carcinogen]: 17.8 MG/KG BW 2/WK FOR 20 WK, Promoter: NONE USED): 50%, 41%, 18%, not significant | tumour outcome (control, treated, inhibition, significance) (Carcinogen: DIETHYLNITROSAMINE, 55-18-5, Dose [Inhibitor]: 0, 1600 MG/KG DIET FOR DURATION OF STUDY BEGINNING 1 WK PRIOR TO CARCINOGEN TREATMENT (STUDY DURATION: 25 WK), Route [Inhibitor]: ORAL, Species: HAMSTER, Strain/Sex: SYRIAN/MALE, Target Tissue: Type of Lesion: TRACHEA: PAPILLOMA, Dose [Carcinogen]: 17.8 MG/KG BW 2/WK FOR 20 WK, Promoter: NONE USED): 95%, 83%, 13%, not significant | tumour outcome (control, treated, inhibition, significance) (Carcinogen: DIETHYLNITROSAMINE, 55-18-5, Dose [Inhibitor]: 0, 3200 MG/KG DIET FOR DURATION OF STUDY BEGINNING 1 WK PRIOR TO CARCINOGEN TREATMENT (STUDY DURATION: 25 WK), Route [Inhibitor]: ORAL, Species: HAMSTER, Strain/Sex: SYRIAN/MALE, Target Tissue: Type of Lesion: LUNG: CARCINOMA, Dose [Carcinogen]: 17.8 MG/KG BW 2/WK FOR 20 WK, Promoter: NONE USED): 60%, 47%, 22%, not significant | tumour outcome (control, treated, inhibition, significance) (Carcinogen: DIETHYLNITROSAMINE, 55-18-5, Dose [Inhibitor]: 0, 3200 MG/KG DIET FOR DURATION OF STUDY BEGINNING 1 WK PRIOR TO CARCINOGEN TREATMENT (STUDY DURATION: 25 WK), Route [Inhibitor]: ORAL, Species: HAMSTER, Strain/Sex: SYRIAN/MALE, Target Tissue: Type of Lesion: TRACHEA: PAPILLOMA, Dose [Carcinogen]: 17.8 MG/KG BW 2/WK FOR 20 WK, Promoter: NONE USED): 100%, 95%, 5%, not significant | tumour outcome (control, treated, inhibition, significance) (Carcinogen: METHYLAZOXYMETHANOL ACETATE, 592-62-1, Dose [Inhibitor]: 0, 0.1% IN DRINKING WATER FOR 25 WK BEGINNING 15 WK POST INITIAL CARCINOGEN DOSE (STUDY DURATION: 40 WK), Route [Inhibitor]: ORAL, Species: RAT, Strain/Sex: F344/MALE, Target Tissue: Type of Lesion: LARGE INTESTINE: ADENOCARCINOMA, Dose [Carcinogen]: 20 MG/KG BW 1/WK FOR 3 WK, Promoter: 1,2-DIMETHYLHYDRAZINE, 540-73-8): 16/26 (62%), 11/28 (39%), 37%, not significant | tumour outcome (control, treated, inhibition, significance) (Carcinogen: METHYLAZOXYMETHANOL ACETATE, 592-62-1, Dose [Inhibitor]: 0, 0.1% IN DRINKING WATER FOR 25 WK BEGINNING 15 WK POST INITIAL CARCINOGEN DOSE (STUDY DURATION: 40 WK), Route [Inhibitor]: ORAL, Species: RAT, Strain/Sex: F344/MALE, Target Tissue: Type of Lesion: SMALL INTESTINE: ADENOCARCINOMA, Dose [Carcinogen]: 20 MG/KG BW 1/WK FOR 3 WK, Promoter: 1,2-DIMETHYLHYDRAZINE, 540-73-8): 8/26 (31%), 8/25 (29%), 6%, not significant | tumour outcome (control, treated, inhibition, significance) (Carcinogen: N-BUTYL-N(4-HYDROXYBUTYL)NITROSAMINE, 3817-11-6, Dose [Inhibitor]: 0, 640 MG/KG DIET FOR 6 MO BEGINNING 1 WK PRIOR TO CARCINOGEN TREATMENT (STUDY DURATION: 6 MO), Route [Inhibitor]: ORAL, Species: MOUSE, Strain/Sex: BDF/MALE, Target Tissue: Type of Lesion: URINARY BLADDER: CARCINOMA, Dose [Carcinogen]: 7.5 MG IN 0.1 ML ETHANOL:WATER (20:80) 1/WK FOR 8 WK, Promoter: NONE USED): 27/70 (39%), 21/72 (29%), 26%, not calculated | tumour outcome (control, treated, inhibition, significance) (Carcinogen: N-BUTYL-N-(4-HYDROXYBUTYL)NITROSAMINE, 3817-11-6, Dose [Inhibitor]: 0, 600 MG/KG DIET BEGINNING 1 WK PRIOR TO CARCINOGEN TREATMENT AND CONTINUING FOR DURATION OF STUDY (STUDY DURATION: 180, Route [Inhibitor]: ORAL, Species: MOUSE, Strain/Sex: BDF/MALE, Target Tissue: Type of Lesion: BLADDER: CARCINOMA, Dose [Carcinogen]: 7.5 MG IN 0.1 ML OF ETHANOL:WATER (20:80) 1/WK FOR 8 WK, Promoter: NONE USED): 25/63 (40%), 17/72 (24%), 40%, p<0.05 | tumour outcome (control, treated, inhibition, significance) (Carcinogen: N-BUTYL-N-(4-HYDROXYBUTYL)NITROSAMINE, 3817-11-6, Dose [Inhibitor]: 0, 1200 MG/KG DIET BEGINNING 1 WK PRIOR TO CARCINOGEN TREATMENT AND CONTINUING FOR DURATION OF STUDY (STUDY DURATION: 18, Route [Inhibitor]: ORAL, Species: MOUSE, Strain/Sex: BDF/MALE, Target Tissue: Type of Lesion: BLADDER: CARCINOMA, Dose [Carcinogen]: 7.5 MG IN 0.1 ML OF ETHANOL:WATER (20:80) 1/WK FOR 8 WK, Promoter: NONE USED): 28/65 (43%), 14/65 (22%), 49%, p<0.01 | tumour outcome (control, treated, inhibition, significance) (Carcinogen: N-BUTYL-N-(4-HYDROXYBUTYL)NITROSAMINE, 3817-11-6, Dose [Inhibitor]: 0, 1280 MG/KG DIET FOR 6 MO BEGINNING 1 WK PRIOR TO CARCINOGEN TREATMENT (STUDY DURATION: 6 MO), Route [Inhibitor]: ORAL, Species: MOUSE, Strain/Sex: BDF/MALE, Target Tissue: Type of Lesion: URINARY BLADDER: CARCINOMA, Dose [Carcinogen]: 7.5 MG IN 0.1 ML ETHANOL:WATER (20:80) 1/WK FOR 8 WK, Promoter: NONE USED): 30/73 (41%), 15/73 (21%), 49%, p<0.01 | tumour outcome (control, treated, inhibition, significance) (Carcinogen: N-BUTYL-N-(4-HYDROXYBUTYL)NITROSOAMINE, 3817-11-6, Dose [Inhibitor]: 0.2% IN DRINKING WATER BEGINNING POST CARCINOGEN DOSE AND CONTINUING FOR 40 WK FOLLOWED BY TAP WATER FOR DURATION OF STU, Route [Inhibitor]: ORAL, Species: RAT, Strain/Sex: F344/MALE, Target Tissue: Type of Lesion: URINARY BLADDER: CARCINOMA, Dose [Carcinogen]: 0.05% IN DRINKING WATER FOR 6 WK, Promoter: NONE USED): 19/19 (100%), 16/18 (89%), 11%, not significant and 24/24 (100%), 23/25 (92%), 8%, not significant | tumour outcome (control, treated, inhibition, significance) (Carcinogen: N-BUTYL-N-(4-HYDROXYBUTYL)NITROSOAMINE, 3817-11-6, Dose [Inhibitor]: 0.2% IN DRINKING WATER BEGINNING POST CARCINOGEN DOSE AND CONTINUING FOR DURATION OF STUDY (STUDY DURATION: 75 WK), Route [Inhibitor]: ORAL, Species: RAT, Strain/Sex: F344/MALE, Target Tissue: Type of Lesion: URINARY BLADDER: CARCINOMA, Dose [Carcinogen]: 0.05% IN DRINKING WATER FOR 6 WK, Promoter: NONE USED): 16/25 (64%), 11/24 (46%), 28%, not significant (at 40 wk post carcinogen dose) and 19/19 (100%), 12/19 (63%), 37%, p<0.017 (at 60 wk post carcinogen dose) and 24/24 (100%), 19/20 (95%), 5%, not significant (at 75 wk post carcinogen dose) | tumour outcome (control, treated, inhibition, significance) (Carcinogen: N-ETHYL-N-NITROSOUREA, 759-73-9, Dose [Inhibitor]: 0, 250 MG/KG DIET FOR DURATION OF STUDY BEGINNING POST CARCINOGEN DOSE (STUDY DURATION: 35 WK), Route [Inhibitor]: ORAL, Species: MOUSE, Strain/Sex: PIM/MALE, Target Tissue: Type of Lesion: LYMPHATIC SYSTEM: LYMPHOMA, Dose [Carcinogen]: 50 MG/KG BW ONCE, Promoter: NONE USED): 21/40 (53%), 15/29 (52%), 2%, not significant
